Drawing on patent US10538516B2, “Oxadiazole derivative and pharmaceutical containing same” (National Center for Geriatrics and Gerontology, priority 2015, dated 2020), this text covers inhibition for 32 molecules.

A value given as a limit tells only on which side of the number the result lay.

In the first test the target is T1, GAβ-dependent amyloid fibril formation (Human Aβ1-40 + GM1-containing liposome) (Homo sapiens, UniProt P05067).
T1 construct: Human Aβ1-40 (cat. #4307-v, prepared by Peptide Institute); purchased Peptide Institute 4307-v
T1 sequence (P05067 672-711 limits assumed): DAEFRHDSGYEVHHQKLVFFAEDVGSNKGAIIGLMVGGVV
Nature of the test: Thioflavin T (ThT) assay of GAβ-dependent amyloid fibril formation (Aβ1-40 with GM1-containing liposome). In kind it is biochemical. The settings on record: @25 μM; read-out: ThT Inhibitory activity (% inhibition). In outline:
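Human Aβ1-40 (75 μM stock) pre-incubated 10 min at room temperature with compound (75 or 15 μM solution), then GM1-containing cholesterol/sphingomyelin liposome added and incubated 37° C, 18 hours. Fibrils quantified by ThT fluorescence (ex 430/em 490 nm, pH 8.5 glycine buffer); inhibition as ratio to compound-free control.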
Take `O=C(N[C@@H](CO)c1nc(-c2c[nH]c3ncccc23)no1)c1ccc(F)cc1` [Compound 229, 4-fluoro-N-[(1S)-2-hydroxy-1-(3-{1H-pyrrolo[2,3-b]pyridin-3-yl}-1,2,4-oxadiazol-5-yl)ethyl]benzamide]: the inhibition at 25 µM was 71%.
On the same count and under the same terms, with `O=C(N[C@@H](CO)c1nc(-c2csc3ccccc23)no1)c1ccc(F)cc1` [Compound 230, N-[(1S)-1-[3-(1-benzothiophen-3-yl)-1,2,4-oxadiazol-5-yl]-2-hydroxyethyl]-4-fluorobenzamide] the figure was 73%; with `COc1ccc2nc(-c3noc([C@H](CO)NC(=O)c4ccc(F)cc4)n3)sc2c1` [Compound 235, 4-fluoro-N-[(1S)-2-hydroxy-1-[3-(6-methoxy-1,3-benzothiazol-2-yl)-1,2,4-oxadiazol-5-yl]ethyl]benzamide], 63%; with `O=C(N[C@@H](CO)c1nc(-c2ccc(C(F)(F)F)cc2)no1)c1ccc(Cl)cn1` [Compound 239, 5-chloro-N-[(1S)-2-hydroxy-1-{3-[4-(trifluoromethyl)phenyl]-1,2,4-oxadiazol-5-yl}ethyl]pyridine-2-carboxamide], 64%.
As to `O=C(N[C@@H](CO)c1nc(-c2cccc(C(F)(F)F)c2)no1)c1ccc(F)c(Cl)c1` [Compound 242, 3-chloro-4-fluoro-N-[(1S)-2-hydroxy-1-{3-[3-(trifluoromethyl)phenyl]-1,2,4-oxadiazol-5-yl}ethyl]benzamide], the inhibition at 25 µM was 59%.

The test is the same for the next values; noted with them: inhibition rate against amyloid fibril formation, final concentration of the compound 25 μM; read-out: Inhibitory activity ABC evaluation.
On to `O=C(N[C@@H](CO)c1nc(-c2ccc(Cl)o2)no1)c1ccc(F)cc1` [Compound 228, N-[(1S)-1-[3-(5-chlorofuran-2-yl)-1,2,4-oxadiazol-5-yl]-2-hydroxyethyl]-4-fluorobenzamide], for which the inhibition at 25 µM is under 40%.
On the same count and under the same terms, in the case of `O=C(N[C@@H](CO)c1nc(-c2c[nH]c3ncccc23)no1)c1ccc(F)cc1` [Compound 229, 4-fluoro-N-[(1S)-2-hydroxy-1-(3-{1H-pyrrolo[2,3-b]pyridin-3-yl}-1,2,4-oxadiazol-5-yl)ethyl]benzamide] it was 40 to 80%; in that of `O=C(N[C@@H](CO)c1nc(-c2csc3ccccc23)no1)c1ccc(F)cc1` [Compound 230, N-[(1S)-1-[3-(1-benzothiophen-3-yl)-1,2,4-oxadiazol-5-yl]-2-hydroxyethyl]-4-fluorobenzamide], 40 to 80%.
The same measure, in the same setting: in the case of `O=C(N[C@@H](CO)c1nc(-c2cc(Cl)sc2Cl)no1)c1ccc(F)cc1` [Compound 231, N-[(1S)-1-[3-(2,5-dichlorothiophen-3-yl)-1,2,4-oxadiazol-5-yl]-2-hydroxyethyl]-4-fluorobenzamide] it was 40 to 80%; in that of `O=C(N[C@@H](CO)c1nc(-c2cc3ccccc3s2)no1)c1ccc(F)cc1` [Compound 232, N-[(1S)-1-[3-(1-benzothiophen-2-yl)-1,2,4-oxadiazol-5-yl]-2-hydroxyethyl]-4-fluorobenzamide], over 80%.
On the same count and under the same terms, in the case of `O=C(N[C@@H](CO)c1nc(-c2c[nH]c3ccc(Cl)cc23)no1)c1ccc(F)cc1` [Compound 233, N-[(1S)-1-[3-(5-chloro-1H-indol-3-yl)-1,2,4-oxadiazol-5-yl]-2-hydroxyethyl]-4-fluorobenzamide] it was 40 to 80%; in that of `O=C(N[C@@H](CO)c1nc(-c2c[nH]c3ccc(F)cc23)no1)c1ccc(F)cc1` [Compound 234], 40 to 80%.
Regarding `COc1ccc2nc(-c3noc([C@H](CO)NC(=O)c4ccc(F)cc4)n3)sc2c1` [Compound 235, 4-fluoro-N-[(1S)-2-hydroxy-1-[3-(6-methoxy-1,3-benzothiazol-2-yl)-1,2,4-oxadiazol-5-yl]ethyl]benzamide], the inhibition at 25 µM lay in the range of 40 to 80%.
`O=C(N[C@@H](CO)c1nc(-c2ccc(C(F)(F)F)cc2)no1)c1ccc(Cl)cc1F` [Compound 236, 4-chloro-2-fluoro-N-[(1S)-2-hydroxy-1-{3-[4-(trifluoromethyl)phenyl]-1,2,4-oxadiazol-5-yl}ethyl]benzamide]: the inhibition at 25 µM was over 80%.
The same measure, in the same setting: in the case of `O=C(N[C@@H](CO)c1nc(-c2ccc(C(F)(F)F)cc2)no1)c1ccc2[nH]nnc2c1` [Compound 238, N-[(1S)-2-hydroxy-1-{3-[4-(trifluoromethyl)phenyl]-1,2,4-oxadiazol-5-yl}ethyl]-1H-1,2,3-benzotriazole-5-carboxamide] it was 40 to 80%; in that of `O=C(N[C@@H](CO)c1nc(-c2ccc(C(F)(F)F)cc2)no1)c1ccc(Cl)cn1` [Compound 239, 5-chloro-N-[(1S)-2-hydroxy-1-{3-[4-(trifluoromethyl)phenyl]-1,2,4-oxadiazol-5-yl}ethyl]pyridine-2-carboxamide], 40 to 80%.
The same measure, in the same setting: with `O=C(N[C@@H](CO)c1nc(-c2ccc(C(F)(F)F)cc2)no1)c1cn2ccccc2n1` [Compound 240, N-[(1S)-2-hydroxy-1-{3-[4-(trifluoromethyl)phenyl]-1,2,4-oxadiazol-5-yl}ethyl]imidazo[1,2-a]pyridine-2-carboxamide] the figure was under 40%; with `N[C@@H](Cc1c[nH]c2ccccc12)C(=O)N[C@@H](CO)c1nc(-c2ccc(C(F)(F)F)cc2)no1` [Compound 241, (2S)-2-amino-N-[(1S)-2-hydroxy-1-{3-[4-(trifluoromethyl)phenyl]-1,2,4-oxadiazol-5-yl}ethyl]-3-(1H-indol-3-yl)propanamide], under 40%; with `O=C(N[C@@H](CO)c1nc(-c2cccc(C(F)(F)F)c2)no1)c1ccc(F)c(Cl)c1` [Compound 242, 3-chloro-4-fluoro-N-[(1S)-2-hydroxy-1-{3-[3-(trifluoromethyl)phenyl]-1,2,4-oxadiazol-5-yl}ethyl]benzamide], 40 to 80%.
As to `O=C(N[C@@H](CO)c1nc(-c2cccc(C(F)(F)F)c2)no1)c1c[nH]c2ccccc12` [Compound 243, N-[(1S)-2-hydroxy-1-{3-[3-(trifluoromethyl)phenyl]-1,2,4-oxadiazol-5-yl}ethyl]-1H-indole-3-carboxamide], the inhibition at 25 µM is under 40%.
For `O=C(N[C@@H](CO)c1nc(-c2cccc(C(F)(F)F)c2)no1)c1cn2ccccc2n1` [Compound 244, N-[(1S)-2-hydroxy-1-{3-[3-(trifluoromethyl)phenyl]-1,2,4-oxadiazol-5-yl}ethyl]imidazo[1,2-a]pyridine-2-carboxamide], the inhibition at 25 µM is under 40%.
Still for that read-out and setting: in the case of `Cn1cc(-c2noc([C@H](CO)NC(=O)c3ccc(F)cc3)n2)c2ccccc21` [Compound 245, 4-fluoro-N-[(1S)-2-hydroxy-1-[3-(1-methyl-1H-3-yl)-1,2,4-oxadiazol-5-yl]ethyl]benzamide] it was 40 to 80%.
For `O=C(N[C@@H](CO)c1nc(-c2ncccn2)no1)c1ccc(F)cc1` [Compound 246, 4-fluoro-N-[(1S)-2-hydroxy-1-[3-(pyrimidin-2-yl)-1,2,4-oxadiazol-5-yl]ethyl]benzamide], the inhibition at 25 µM lay in the range of 40 to 80%.
The same measure, in the same setting: in the case of `O=C(N[C@@H](CO)c1nc(-c2c[nH]c3ccc(Br)cc23)no1)c1ccc(F)cc1` [Compound 247, N-[(1S)-1-[3-(5-bromo-1H-indol-3-yl)-1,2,4-oxadiazol-5-yl]-2-hydroxyethyl]-4-fluorobenzamide] it was 40 to 80%; in that of `O=C(N[C@@H](CO)c1nc(-c2ccc(-c3ccccc3)s2)no1)c1ccc(F)cc1` [Compound 248, 4-fluoro-N-[(1S)-2-hydroxy-1-[3-(5-phenylthiophen-2-yl)-1,2,4-oxadiazol-5-yl]ethyl]benzamide], 40 to 80%.
Still for that read-out and setting: in the case of `O=C(N[C@@H](CO)c1nc(-c2cc(Cl)c(Cl)[nH]2)no1)c1ccc(F)cc1` [Compound 249, N-[(1S)-1-[3-(4,5-dichloro-1H-pyrrol-2-yl)-1,2,4-oxadiazol-5-yl]-2-hydroxyethyl]-4-fluorobenzamide] it was 40 to 80%; in that of `O=C(N[C@@H](CO)c1nc(-c2ccc3cc[nH]c3c2)no1)c1ccc(F)cc1` [Compound 250, 4-fluoro-N-[(1S)-2-hydroxy-1-[3-(1H-indol-6-yl)-1,2,4-oxadiazol-5-yl]ethyl]benzamide], 40 to 80%; in that of `O=C(N[C@@H](CO)c1nc(-c2ccc(Cl)[nH]2)no1)c1ccc(F)cc1` [Compound 251, N-[(1S)-1-[3-(5-chloro-1H-pyrrol-2-yl)-1,2,4-oxadiazol-5-yl]-2-hydroxyethyl]-4-fluorobenzamide], 40 to 80%.
The same measure, in the same setting: in the case of `O=C(N[C@@H](CO)c1nc(-c2c[nH]c3ccc(Cl)cc23)no1)c1ccc(Cl)cc1F` [Compound 252, 4-chloro-N-[(1S)-1-[3-(5-chloro-1H-indol-3-yl)-1,2,4-oxadiazol-5-yl]-2-hydroxyethyl]-2-fluorobenzamide] it was 40 to 80%; in that of `O=C(N[C@@H](CO)c1nc(-c2c[nH]c3ccc(Cl)cc23)no1)c1ccc(N2CCCC2)cc1` [Compound 253, N-[(1S)-1-[3-(5-chloro-1H-indol-3-yl)-1,2,4-oxadiazol-5-yl]-2-hydroxyethyl]-4-(pyrrolidin-1-yl) benzamide], 40 to 80%; in that of `O=C(N[C@@H](CO)c1nc(-c2c[nH]c3ccc(Cl)cc23)no1)c1ccc(Cl)cn1` [Compound 254, 5-chloro-N-[(1S)-1-[3-(5-chloro-1H-indol-3-yl)-1,2,4-oxadiazol-5-yl]-2-hydroxyethyl] pyridine-2-carboxamide], 40 to 80%.
On to `O=C(N[C@@H](CO)c1nc(-c2ccoc2Cl)no1)c1ccc(F)cc1` [Compound 255, N-[(1S)-1-[3-(2-chlorofuran-3-yl)-1,2,4-oxadiazol-5-yl]-2-hydroxyethyl]-4-fluorobenzamide], for which the inhibition at 25 µM lay within 40 to 80%.
Same read-out and setting: with `O=C(N[C@@H](CO)c1nc(-c2ccc3c(C(=O)C(F)(F)F)c[nH]c3c2)no1)c1ccc(F)cc1` [Compound 256, 4-fluoro-N-[(1S)-2-hydroxy-1-{3-[3-(2,2,2-trifluoroacetyl)-1H-indol-6-yl]-1,2,4-oxadiazol-5-yl}ethyl] benzamide] the figure was 40 to 80%; with `Nc1n[nH]cc1-c1noc([C@H](CO)NC(=O)c2ccc(F)cc2)n1` [Compound 257, N-[(1S)-1-[3-(3-amino-1H-pyrazol-4-yl)-1,2,4-oxadiazol-5-yl]-2-hydroxyethyl]-4-fluorobenzamide], 40 to 80%.
Same read-out and setting: in the case of `Nc1[nH]cnc1-c1noc([C@H](CO)NC(=O)c2ccc(F)cc2)n1` [Compound 258, N-[(1S)-1-[3-(5-amino-1H-imidazol-4-yl)-1,2,4-oxadiazol-5-yl]-2-hydroxyethyl]-4-fluorobenzamide] it was 40 to 80%; in that of `O=C(N[C@@H](CO)c1nc(-c2nc3ccc(O)cc3s2)no1)c1ccc(F)cc1` [Compound 259, 4-fluoro-N-[(1S)-2-hydroxy-1-[3-(6-hydroxy-1,3-benzothiazol-2-yl)-1,2,4-oxadiazol-5-yl]ethyl] benzamide], 40 to 80%.
For `O=C(N[C@@H](CO)c1nc(-c2c[nH]c3cc(F)ccc23)no1)c1ccc(F)cc1` [Compound 260, 4-fluoro-N-[(1S)-1-[3-(6-fluoro-1H-indol-3-yl)-1,2,4-oxadiazol-5-yl]-2-hydroxyethyl] benzamide], the inhibition at 25 µM fell in the range of 40 to 80%.
